Experiment: gradient 5% acetonitrile 3 min, to 50% in 2 min, to 85% in 15 min, held 3 min, 100 µL/min
Conditions: column: Zorbax Extend-C18 2.1 x 50 mm; eluents: water / acetonitrile, 0.1% formic acid
How it was run: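 The mobile phases were water and acetonitrile, each with 0.1% formic acid, pumped at 100 μL/min through a Zorbax Extend-C18 column (2.1 × 50 mm, 1.8 μm). Pure standards were injected as mixtures of ~100 molecules and detected by a quadrupole time-of-flight mass spectrometer in positive and negative ionization mode. Retention time came from computationally picked adduct peaks, each inspected by hand.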

SMILES	RP-LC retention time
CC(C)NC(=O)c1cccn(-c2ccc(NC(=O)C(C)(C)C)cc2)c1=O	749 s
CCCC1c2nccn2CCCN1C(=O)Cc1c(C)noc1C (centres undefined)	579 s
CC(C)NC(=O)N(CC(=O)N1CCc2sccc2C1COc1cccc(F)c1)CC1CCCO1 (centres undefined)	950 s
Cc1ccc(Nc2c(-c3ccc(N4CCOCC4)cc3)nc3ccc(C)cn23)cc1	739 s
O=C(Cn1ccc2ccc(N3CCOCC3)nc21)NC1CCN(Cc2ccccc2)CC1	638 s
COc1cccc(C2Cn3nnc(-c4nc(-c5ccc(Br)cc5)no4)c3CO2)c1 (centres undefined)	1240 s
COc1ccc2[nH]cc(CCNC(=O)Cn3nc4c(cc3=O)CCCCC4)c2c1	756 s
Cc1csc(-c2cc(S(=O)(=O)Nc3cc(Cl)ccc3C)c(C)s2)n1	1110 s
COC(=O)c1c(-c2ccc(Cl)cc2)noc1NC(C)C	1090 s
COc1ccc(CC(=O)Nc2nnc(SCC(=O)NC3=NCCS3)s2)cc1	682 s
Cn1c(=O)c(N2CCCC(C(=O)NCCc3ccco3)C2)nc2cccnc21 (centres undefined)	827 s
Cc1cc(Cl)ccc1NC(=O)C1CCCN1S(=O)(=O)c1cc2c(cc1C)NC(=O)C(C)O2 (centres undefined)	914 s
Cc1noc([C@@H]2CN(C(=O)c3occc3C)C[C@H]2CO)n1	642 s
O=C(C1CCN(S(=O)(=O)c2ccc(-c3noc(Cc4ccc(F)cc4)n3)cc2)CC1)N1CCCC1	971 s
Cc1cc(C)n(CCNC(=O)NCc2cccs2)n1	593 s
O=C(NCCc1nc2ccccc2n1CC(=O)N1CCCC1)c1cccnc1	566 s
CC1=C(c2ccc(C)c(C)c2)S(=O)(=O)N=C1N1CCCN(C(=O)c2cccs2)CC1	874 s
Cc1cccc(NC(=O)Cc2c(C)n(C)c3nc(-c4ccccc4)nn3c2=O)c1	824 s
COc1ccc(CNC(=O)CN2C(=O)NC(c3ccc(Cl)cc3)C3=C2COC3=O)cc1 (centres undefined)	780 s
CN1CCCc2cc(CCNC(=O)C(=O)NCCC3=CCCCC3)ccc21	842 s
Cc1ccccc1Sc1nccnc1SCC(=O)N1CCN(c2ccccn2)CC1	715 s
O=C(Nc1cccs1)N1CC(c2nc(C3CC3)no2)C1	681 s
CCN(CC)CCNC(=O)C1CCN(c2ccc(-c3cccs3)nn2)CC1	556 s

SMILES	RP-LC retention time
O=C(Nc1ccccc1C(F)(F)F)N1CCc2nc(-c3ccccc3)ncc2C1	948 s
Cc1ccccc1-c1nnc(COc2ccc(NC(=O)c3cncc(Br)c3)cc2)o1	968 s
Cn1cnc2c(C(=O)NC3CCCCCC3)nn(-c3ccccc3)c2c1=O	910 s
COC(=O)CC(=O)Nc1cc2c(cc1N1CCOCC1)n(C)c(=O)n2C	597 s
CCS(=O)(=O)N1C[C@@H](COC)[C@H](C(N)=O)C1	560 s
CC(=O)c1ccc(NC(=O)c2cc(C)nc3ccccc23)cc1	644 s
Cn1ncc2c(N3CCCC3)nc(C(=O)NCc3cccs3)nc21	742 s
Cc1cc(C(=O)N2CCC(CC(=O)NC3CC3)C2)n(C)n1 (centres undefined)	585 s
Fc1ccc(-c2nnc(Cc3nc(-c4ccc(Cl)cc4)no3)o2)cc1	1080 s
COc1ccc2c(c1)c1ncn(Cc3nc(C4CC4)no3)c(=O)c1n2Cc1c(F)cccc1Cl	1070 s
COc1ccc(CNC(=O)NCCc2cn(C)c3ncccc23)cc1	649 s
O=C(NC1CCCC1)C1CCCN(C(=O)c2ccc(F)c(F)c2)C1 (centres undefined)	763 s
CCOC(=O)C1CCN(C(=O)C2CCN(c3cncnc3N3CCCCC3)CC2)CC1	651 s
CCn1c(C(=O)NCCCN2CCOCC2)c(N2CCCC2=O)c2cc(F)ccc21	624 s
O=c1c2cc(-c3ccc(Cl)cc3)nn2ccn1Cc1nc(-c2ccccn2)no1	894 s
CCN1C(=O)COc2ccc(-c3nc(NC(=O)c4cccnc4)sc3C)cc21	784 s
O=C(O)c1cc2c([nH]c1=O)CCCC2O (centres undefined)	516 s
Cc1ccc(-c2nc3sc(N4CCCCC4)nn3c2NC(=O)C2CC2)cc1	885 s
CCn1cc(CCN2CCC(C(=O)N(C)C)CC2)c2cccnc21	566 s
Cc1ccc(CNC(=O)CN2C(=O)CCCc3cc(S(=O)(=O)N4CCCC4)ccc32)cc1	824 s
O=C(CCc1nc2sc3c(c2c(=O)[nH]1)CCCCC3)N1CCN(c2ccccn2)CC1	603 s
CCOc1ccc2nc(NC(=O)C3CCCN(c4ncnc5c4nc4n5CCCCC4)C3)sc2c1 (centres undefined)	1000 s
O=C(NCCCN1CCOCC1)c1cc2occc2c(Nc2ccccc2)n1	644 s

SMILES	RP-LC retention time
O=S(=O)(Cc1cccc(Cl)c1)N1CCc2nc(-c3ccc(Cl)cc3)ncc2C1	1210 s
O=C(OCc1cc(-c2cccs2)on1)c1ccc(Cn2ccnc2)cc1	600 s
Cn1nc(C(=O)Nc2ccccc2)c2c1CCN(C(=O)Nc1cccc(Br)c1)C2	914 s
O=C(CN1CCN(Cc2ccc(F)cc2)C1=O)NCc1cc(F)cc(F)c1	826 s
COc1cccc2c1[C@@H]1CN(CCCCN3C(=O)NC4C(SC5NCC(c6ccccc6)NC54)C3=O)C[C@@H]1CO2 (some centres undefined)	902 s
Cc1ccc(-c2nc(-c3ccc(S(=O)(=O)N4CCC(C(=O)N5CCCC5)CC4)cc3)no2)cc1F	1110 s
Cc1cccc(-n2c(=O)c3c(cc(C)n3C)n(CC(=O)Nc3c(C)cccc3C)c2=O)c1	906 s
COCCNC(=O)CC1CCN(C(=O)c2[nH]c(C)cc2C)CC1	631 s
CC1(C(=O)NCc2ccc(F)cc2)Cn2cnc(C(=O)NCc3ccccc3F)c2C(=O)N1C1CC1 (centres undefined)	751 s
CN(C)c1nc2ncn3c(=O)n(CC(=O)Nc4ccccc4)nc3c2s1	670 s
Cc1sc(-c2nc(C(C)C)cs2)cc1S(=O)(=O)N1CCN(c2ccccn2)CC1	908 s
Cc1ccc(-c2nnc(-c3ccccc3)o2)cc1S(=O)(=O)N1CCCC1	1020 s
CC(C)c1ccc(NC(=O)Cn2cccc2-c2nnc(C3CCC3)o2)cc1	1060 s
O=C(c1ccc(OCC2CCCN2C(=O)c2cccs2)cc1)N1CCCC1 (centres undefined)	815 s
CC(=O)Nc1cc(-c2nc(-c3ccc4oc(-c5ccccc5)nc4c3)no2)ccc1C	738 s
COc1ccc2c(ccn2CC(=O)N[C@@H](CC(C)C)C(=O)O)c1	756 s
CCOc1ccc(-c2noc(CSc3nccn3-c3ccc(C)cc3)n2)cc1OC	908 s
CCCNS(=O)(=O)c1cc2n(c1)CCCN(CC)C2=O	642 s
CCOC(=O)c1c(S(=O)(=O)N2CCC(C(=O)NCc3cccc(C)c3)CC2)c(C)n(CC)c1C	975 s
Cc1cc2nn(CC(=O)Nc3ccc(F)cc3)c(=O)n2c(N2CCCC2)n1	739 s
CCn1ncc(CN2CCCCC2CCn2cc(-c3ccccc3)nn2)c1C (centres undefined)	530 s
Cc1cccc(-c2nocc2CCC(=O)O)c1	758 s
CC(C)CC(=O)NCC12CCC=C1N(C)C(=O)CC2 (centres undefined)	691 s

SMILES	RP-LC retention time
Cc1cc(F)ccc1NC(=O)Cn1cccc1-c1nnc(C2CCC2)o1	916 s
c1ccc(-n2nnc(-c3noc(-c4ccncc4)n3)c2-c2ccncc2)cc1	732 s
Cc1nc2cc(-c3noc(COc4ccccc4C)n3)ccc2o1	1100 s
CCN1C(=O)COc2ccc(-c3noc(-c4ccc(F)cc4)n3)cc21	1130 s
Cn1nc(-c2nnc(-c3ccccc3Cl)o2)c2c1CCN(C(=O)c1ccc(C(F)(F)F)cc1)C2	943 s
Cc1cc(C)cc(NS(=O)(=O)c2cc(-c3[nH]ncc3C(=O)N(C)C)oc2C)c1	718 s
COc1ccccc1OCC(=O)N(Cc1ccc(N(C)C)cc1)C1CCS(=O)(=O)C1 (centres undefined)	611 s
CCOc1cc(=O)n2c(c1C(=O)N1CCOCC1)CCCCC2	601 s
CN1CCCC1c1nc(C2CN(C(=O)c3cnccn3)C2)no1 (centres undefined)	546 s
CCN1CCN(CCCNC(=O)c2ccc3nc(C(C)C)oc3c2)CC1	667 s
CN(C)S(=O)(=O)N1CCN(S(=O)(=O)c2ccc(F)cc2)CC1	757 s
O=C1NC2(CCN(C(=O)c3ccc(F)cc3)CC2)N=C1c1ccc(Cl)cc1	872 s
CN(C)c1ccc(CNC(=O)CN2c3ccccc3NC3=C(C(=O)CCC3)C2c2ccco2)cc1 (centres undefined)	628 s
CCOc1ccccc1-c1noc(Cn2c(=O)n(Cc3ccccc3)c(=O)c3sccc32)n1	1090 s
CC(C)n1cnc(S(=O)(=O)N2CCC(C(=O)NC3CCCCCCC3)CC2)c1	827 s
CC(C)c1nn2c(S(=O)(=O)NC3CCCCC3)c(C(C)C)nc2s1	1110 s
CCCCC1CCC(C(=O)Nc2nc(-c3ccc4c(c3)N(C)C(=O)CO4)c(C)s2)CC1 (centres undefined)	1410 s
Cc1nc2ccn(Cc3ccco3)c(=O)c2cc1C(=O)NCCC(C)C	776 s
COc1ccc(Cl)cc1NC(=O)c1cc(C2CC2)n2nccc2n1	1210 s
Cc1ccc(NC(=O)C2CC(=O)N(c3n[nH]c4cc(Br)ccc34)C2)cc1 (centres undefined)	839 s
